Earlier results on one compound are cited in patent US9320746B2, “Method for treating intestinal fibrosis” (Sigmoid Pharma Limited, priority 2013, dated 2016).

The conditions of the data set: extensive first-pass elimination; compared with other corticosteroid formulations.

Consider `CCCC1O[C@@H]2C[C@H]3[C@@H]4CCC5=CC(=O)C=C[C@]5(C)[C@H]4[C@@H](O)C[C@]3(C)[C@]2(C(=O)CO)O1` (stereo partly drawn) [budesonide, 16,17-butylidendioxy-11β,21-dihydroxy-1,4-pregnadien-3,20-dione], for which the systemic bioavailability is listed as 10-15%.
